Measurements reported in patent US20240166652A1, “MODULATORS OF THE INTEGRATED STRESS PATHWAY” (Calico Life Sciences LLC, priority 2017, published 2024).

What follows are molecules tested on ATF4 luciferase reporter in HEK293T cells (assay: ATF4-Luc assay (ATF4 luciferase reporter, tunicamycin-treated HEK293T cells)). Settings: Homo sapiens, HEK-293T; HEK293T cells carrying the ATF4 luciferase reporter, 1 μg/mL tunicamycin, 7 hours.
Assay type: cell-based, human

First: COc1cncc(OCC(=O)NC23CCC(NC(=O)COc4ccc(Cl)c(F)c4)(CC2)[C@@H](O)C3)c1 [Compound 675, 2-(4-chloro-3-fluorophenoxy)-N-[(2S)-2-hydroxy-4-{2-[(5-methoxypyridin-3-yl)oxy]acetamido}bicyclo[2.2.2]octan-1-yl]acetamide]
Second: O=C(COc1ccc(F)c(F)c1)NC12CCC(NC(=O)COc3ccc(Cl)c(F)c3)(CC1)[C@@H](O)C2 [Compound 586, 2-(4-chloro-3-fluorophenoxy)-N-{(2S)-4-[2-(3,4-difluorophenoxy)acetamido]-2-hydroxybicyclo[2.2.2]octan-1-yl}acetamide]
The EC50 of the first is higher: 10 to 50 nM for the first, < 10 nM for the second.

First: O=C(COc1ccc(Cl)c(F)c1)NC12CCC(NC(=O)COc3ccc(Cl)c(F)c3)(CC1)N(CCO)C2=O [Compound 679, N,N′-[2-(2-hydroxyethyl)-3-oxo-2-azabicyclo[2.2.2]octane-1,4-diyl]bis[2-(4-chloro-3-fluorophenoxy)acetamide]]
Second: CCOC(=O)/C=C1\CC2(NC(=O)COc3ccc(Cl)c(F)c3)CCC1(NC(=O)COc1ccc(Cl)c(F)c1)CC2 [Compound 672, ethyl (2E)-{1,4-bis[2-(4-chloro-3-fluorophenoxy)acetamido]bicyclo[2.2.2]octan-2-ylidene}acetate]
The EC50 of the first is higher: 50 to 250 nM for the first, 10 to 50 nM for the second.

Cc1ccc(OCC(=O)NC23CCC(NC(=O)COc4ccc(Cl)cc4)(CC2)[C@@H](O)C3)cc1 [Compound 787, 2-(4-chlorophenoxy)-N-{(2S)-2-hydroxy-4-[2-(4-methylphenoxy)acetamido]bicyclo[2.2.2]octan-1-yl}acetamide] and Cc1ccc(OCC(=O)NC23CCC(NC(=O)COc4ccc(C)cc4)(CC2)[C@@H](O)C3)cc1 [Compound 442, N,N′-[(2S)-2-hydroxybicyclo[2.2.2]octane-1,4-diyl]bis[2-(4-methylphenoxy)acetamide]] cannot be ordered by EC50: < 10 nM for the first, < 10 nM for the second.

First: COc1ccc(/C=C/C(=O)NC23CC(NC(=O)COc4ccc(Cl)c(F)c4)(C2)C3)cc1 [Compound 347, (2E)-N-{3-[2-(4-chloro-3-fluorophenoxy)acetamido]bicyclo[1.1.1]pentan-1-yl}-3-(4-methoxyphenyl)prop-2-enamide]
Second: Cc1ccc(OCC(=O)NC23CC(NC(=O)COc4ccc(Cl)c(F)c4)(C2)C3)cc1 [Compound 460, 2-(4-chloro-3-fluorophenoxy)-N-{3-[2-(4-methylphenoxy)acetamido]bicyclo[1.1.1]pentan-1-yl}acetamide]
The EC50 of the first is higher: 250 to 500 nM for the first, 10 to 50 nM for the second. The second is the more potent here.

First: O=C(COc1ccc(Cl)c(F)c1)NC12CCC(N[C@H](CCOc3ccc(Cl)cc3)C(=O)O)(CC1)C[C@@H]2O (single isomer, unassigned) [Compound 693]
Second: Cc1ccc(OCC(=O)NC23CCC(NC(=O)COc4ccc(Cl)cc4)(CC2)[C@@H](O)C3)cc1F [Compound 732, 2-(4-chlorophenoxy)-N-{(2S)-4-[2-(3-fluoro-4-methylphenoxy)acetamido]-2-hydroxybicyclo[2.2.2]octan-1-yl}acetamide]
The EC50 of the first is higher: 500 to 2000 nM for the first, < 10 nM for the second.

Compared with O=C(COc1ccc(C2CC2)nc1)NC12CC(NC(=O)COc3ccc4c(c3)OC(F)(F)O4)(C1)C2 [Compound 268, 2-[(6-cyclopropylpyridin-3-yl)oxy]-N-(3-{2-[(2,2-difluoro-2H-1,3-benzodioxol-5-yl)oxy]acetamido}bicyclo[1.1.1]pentan-1-yl)acetamide], N#Cc1cc(OCC(=O)NC23CC(NC(=O)COc4ccc5c(c4)OC(F)(F)O5)(C2)C3)ccn1 [Compound 270, 2-[(2-cyanopyridin-4-yl)oxy]-N-(3-{2-[(2,2-difluoro-2H-1,3-benzodioxol-5-yl)oxy]acetamido}bicyclo[1.1.1]pentan-1-yl)acetamide] is higher in EC50: 10 to 50 nM for the first, 250 to 500 nM for the second.

First: O=C(COc1ccccn1)NC12CCC(NC(=O)COc3ccc(Cl)c(F)c3)(CC1)[C@@H](O)C2 [Compound 663, 2-(4-chloro-3-fluorophenoxy)-N-[(2S)-2-hydroxy-4-{2-[(pyridin-2-yl)oxy]acetamido}bicyclo[2.2.2]octan-1-yl]acetamide]
Second: O=C(COc1ccn2nccc2c1)NC12CCC(NC(=O)COc3ccc(Cl)c(F)c3)(CC1)[C@@H](O)C2 [Compound 645, 2-(4-chloro-3-fluorophenoxy)-N-[(2S)-2-hydroxy-4-{2-[(pyrazolo[1,5-a]pyridin-5-yl)oxy]acetamido}bicyclo[2.2.2]octan-1-yl]acetamide]
The EC50 of the first is higher: 10 to 50 nM for the first, < 10 nM for the second. The second is the more potent here.

Compared with O=C(COc1ccc(Cl)c(F)c1)N[C@@H]1C[C@H]2CC[C@@H](C1)[C@H]2NC(=O)COc1ccc(Cl)c(F)c1 [Compound 595, N,N′-[(1R,3s,5S,8r)-bicyclo[3.2.1]octane-3,8-diyl]bis[2-(4-chloro-3-fluorophenoxy)acetamide]], O=C(COc1ccc(Cl)c(F)c1)NC12CCC(NC(=O)COc3ccc(Cl)c(F)c3)(CC1)C1(CO1)C2 (centres unmarked) [Compound 654, N,N′-(spiro[bicyclo[2.2.2]octane-2,2′-oxirane]-1,4-diyl)bis[2-(4-chloro-3-fluorophenoxy)acetamide]] is lower in EC50: > 2000 nM for the first, < 10 nM for the second. The second is the more potent here.

First: O=C(COc1ncc(C(F)(F)F)cn1)NC12CCC(NC(=O)COc3ccc(Cl)c(F)c3)(CC1)[C@@H](O)C2 [Compound 630, 2-(4-chloro-3-fluorophenoxy)-N-[(2S)-2-hydroxy-4-(2-{[5-(trifluoromethyl)pyrimidin-2-yl]oxy}acetamido)bicyclo[2.2.2]octan-1-yl]acetamide]
Second: O=C(COc1ccc(Cl)c(F)c1)NC12CCC(NC(=O)COc3ccc(C(F)(F)F)nc3)(CC1)[C@H](O)C2 (single isomer, unassigned) [Compound 303]
The EC50 of the first is lower: < 10 nM for the first, 10 to 50 nM for the second. The first is the more potent here.

Compared with O=C(COc1ccc(Cl)c(F)c1)NC12CC(NC(=O)Nc3ccc(Cl)cc3O)(C1)C2 [Compound 432, 2-(4-chloro-3-fluorophenoxy)-N-(3-{[(4-chloro-2-hydroxyphenyl)carbamoyl]amino}bicyclo[1.1.1]pentan-1-yl)acetamide], O=C(COc1ccc(Cl)c(F)c1)NC12CC(NC(=O)C3(c4ccc(Cl)cc4)CC3)(C1)C2 [Compound 668, N-{3-[2-(4-chloro-3-fluorophenoxy)acetamido]bicyclo[1.1.1]pentan-1-yl}-1-(4-chlorophenyl)cyclopropane-1-carboxamide] is higher in EC50: 50 to 250 nM for the first, > 2000 nM for the second. The first is the more potent here.

First: O=C(COc1ccc(C(F)(F)F)nc1)NC12CCC(NC(=O)COc3ccc(Cl)c(F)c3)(C1)C2 [Compound 188, 2-(4-chloro-3-fluorophenoxy)-N-[4-(2-{[6-(trifluoromethyl)pyridin-3-yl]oxy}acetamido)bicyclo[2.1.1]hexan-1-yl]acetamide]
Second: NCc1ccc(OCC(=O)NC23CC(NC(=O)COc4ccc(Cl)c(F)c4)(C2)C3)cn1 [Compound 259, 2-{[6-(aminomethyl)pyridin-3-yl]oxy}-N-{3-[2-(4-chloro-3-fluorophenoxy)acetamido]bicyclo[1.1.1]pentan-1-yl}acetamide]
The EC50 of the first is lower: 50 to 250 nM for the first, 250 to 500 nM for the second.

First: O=C(COc1ccc(Cl)c(F)c1)NC12CCC(NC(=O)Cc3ccc(OC(F)(F)F)cc3)(CC1)C(O)C2 (centres unmarked) [Compound 326, 2-(4-chloro-3-fluorophenoxy)-N-(3-hydroxy-4-{2-[4-(trifluoromethoxy)phenyl]acetamido}bicyclo[2.2.2]octan-1-yl)acetamide]
Second: O=C(COc1ccc(Cl)c(F)c1)NC12CCC(NC(=O)Cc3cccc(OC(F)(F)F)c3)(CC1)C(O)C2 (centres unmarked) [Compound 327, 2-(4-chloro-3-fluorophenoxy)-N-(3-hydroxy-4-{2-[3-(trifluoromethoxy)phenyl]acetamido}bicyclo[2.2.2]octan-1-yl)acetamide]
The EC50 of the first is lower: 50 to 250 nM for the first, > 2000 nM for the second. The first is the more potent here.

Cc1ccc(OCC(=O)NC23CCC(NC(=O)COc4ccc(F)cc4)(CC2)[C@@H](O)C3)cc1F [Compound 731, 2-(3-fluoro-4-methylphenoxy)-N-{(3S)-4-[2-(4-fluorophenoxy)acetamido]-3-hydroxybicyclo[2.2.2]octan-1-yl}acetamide] and O=C(COc1ccc(Cl)c(F)c1)NC12CCC(NC(=O)COc3ccc(F)c(OC(F)(F)F)c3)(CC1)[C@@H](O)C2 [Compound 772, 2-(4-chloro-3-fluorophenoxy)-N-[(3S)-4-{2-[4-fluoro-3-(trifluoromethoxy)phenoxy]acetamido}-3-hydroxybicyclo[2.2.2]octan-1-yl]acetamide] cannot be ordered by EC50: < 10 nM for the first, < 10 nM for the second.

Compared with O=C(COc1ccc(Cl)cc1)NC12CCCC(NC(=O)COc3ccc(Cl)cc3)(C1)C2 [Compound 178, N,N′-(bicyclo[3.1.1]heptane-1,5-diyl)bis[2-(4-chlorophenoxy)acetamide]], N#Cc1ccc(OCC(=O)NC23CC(NC(=O)COc4ccc(Cl)c(F)c4)(C2)C3)nc1 [Compound 215, 2-(4-chloro-3-fluorophenoxy)-N-(3-{2-[(5-cyanopyridin-2-yl)oxy]acetamido}bicyclo[1.1.1]pentan-1-yl)acetamide] is lower in EC50: > 2000 nM for the first, 50 to 250 nM for the second.

First: O=C(COc1ccc(Cl)c(F)c1)NC12CCC(NC(=O)COc3cnn(CC(F)(F)F)c(=O)c3)(CC1)C(O)C2 (centres unmarked) [Compound 334, 2-(4-chloro-3-fluorophenoxy)-N-[3-hydroxy-4-(2-{[6-oxo-1-(2,2,2-trifluoroethyl)-1,6-dihydropyridazin-4-yl]oxy}acetamido)bicyclo[2.2.2]octan-1-yl]acetamide]
Second: O=C(COc1ccc(Cl)c(F)c1)NC12CCC(NC(=O)COc3ccc(Cl)c(F)c3)(CC1)C(C(=O)O)C2 (centres unmarked) [Compound 390, 1,4-bis[2-(4-chloro-3-fluorophenoxy)acetamido]bicyclo[2.2.2]octane-2-carboxylic Acid]
The EC50 of the first is higher: 500 to 2000 nM for the first, 50 to 250 nM for the second.

First: O=C(COc1cccc(OC(F)(F)F)c1)NC12CC(NC(=O)COc3ccc(Cl)c(F)c3)(C1)C2 [Compound 392, 2-(4-chloro-3-fluorophenoxy)-N-(3-{2-[3-(trifluoromethoxy)phenoxy]acetamido}bicyclo[1.1.1]pentan-1-yl)acetamide]
Second: O=C(COc1ccc(Cl)c(Cl)c1)NC12CC(NC(=O)OCc3cccc(Cl)c3)(C1)C2 [Compound 172, (3-chlorophenyl)methyl {3-[2-(3,4-dichlorophenoxy)acetamido]-bicyclo[1.1.1]pentan-1-yl}carbamate]
The EC50 of the first is lower: < 10 nM for the first, 250 to 500 nM for the second. The first is the more potent here.
